In PubChem BioAssay (NCI):
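Tested at 5 concentrations; 48 h exposure; 96-well plates; endpoints linearly interpolated, else capped at highest concentration. GI50 is the concentration that inhibits growth by half. TGI: concentration producing complete growth inhibition.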

Experiments:
Assay in all cases: inhibition of tumour cell growth, NCI panel, 48 h
786-0 renal = test system: 786-0 renal
A498 renal = test system: A498 renal
A549 NSCLC = test system: A549 NSCLC
ACHN renal = test system: ACHN renal
BT-549 breast = test system: BT-549 breast
CAKI-1 renal = test system: CAKI-1 renal
CCRF-CEM leukemia = test system: CCRF-CEM leukemia
DU-145 prostate = test system: DU-145 prostate
EKVX NSCLC = test system: EKVX NSCLC
HCC-2998 colon = test system: HCC-2998 colon
HCT-116 colon = test system: HCT-116 colon
HCT-15 colon = test system: HCT-15 colon
HL-60(TB) leukemia = test system: HL-60(TB) leukemia
HOP-62 NSCLC = test system: HOP-62 NSCLC
HOP-92 NSCLC = test system: HOP-92 NSCLC
HS 578T breast = test system: HS 578T breast
HT29 colon = test system: HT29 colon
IGROV1 ovarian = test system: IGROV1 ovarian
K-562 leukemia = test system: K-562 leukemia
KM12 colon = test system: KM12 colon
LOX IMVI melanoma = test system: LOX IMVI melanoma
M14 melanoma = test system: M14 melanoma
MALME-3M melanoma = test system: MALME-3M melanoma
MCF7 breast = test system: MCF7 breast
MDA-MB-231 breast = test system: MDA-MB-231 breast
MDA-MB-435 = test system: MDA-MB-435
MOLT-4 leukemia = test system: MOLT-4 leukemia
NCI-H226 lung = test system: NCI-H226 lung
NCI-H23 lung = test system: NCI-H23 lung
NCI-H460 lung = test system: NCI-H460 lung
NCI-H522 lung = test system: NCI-H522 lung
NCI/ADR-RES ovarian = test system: NCI/ADR-RES ovarian
OVCAR-3 ovarian = test system: OVCAR-3 ovarian
OVCAR-4 ovarian = test system: OVCAR-4 ovarian
OVCAR-5 ovarian = test system: OVCAR-5 ovarian
OVCAR-8 ovarian = test system: OVCAR-8 ovarian
PC-3 prostate = test system: PC-3 prostate
RPMI-8226 leukemia = test system: RPMI-8226 leukemia
RXF 393 renal = test system: RXF 393 renal
SF-268 CNS = test system: SF-268 CNS
SF-295 CNS = test system: SF-295 CNS
SF-539 CNS = test system: SF-539 CNS
SK-MEL-2 melanoma = test system: SK-MEL-2 melanoma
SK-MEL-28 melanoma = test system: SK-MEL-28 melanoma
SK-MEL-5 melanoma = test system: SK-MEL-5 melanoma
SK-OV-3 ovarian = test system: SK-OV-3 ovarian
SN12C renal = test system: SN12C renal
SNB-19 CNS = test system: SNB-19 CNS
SNB-75 CNS = test system: SNB-75 CNS
SR leukemia = test system: SR leukemia
SW-620 colon = test system: SW-620 colon
T-47D breast = test system: T-47D breast
TK-10 renal = test system: TK-10 renal
U251 CNS = test system: U251 CNS
UACC-257 melanoma = test system: UACC-257 melanoma
UACC-62 melanoma = test system: UACC-62 melanoma
UO-31 renal = test system: UO-31 renal

In the case of `COc1cc(C#Cc2ccc(=O)oc2C#Cc2ccccc2)cc(OC)c1OC`, the GI50 (786-0 renal) is reported as 3.39 µM, the TGI (786-0 renal) is reported as 12.2 µM and the GI50 (A498 renal) is reported as 19.1 µM. For the same molecule, the TGI (A498 renal) was 34.5 µM, the GI50 (A549 NSCLC) was 10.3 µM and the TGI (A549 NSCLC) was 43.9 µM. For the same molecule, the GI50 (ACHN renal) was 2130 nM, the TGI (ACHN renal) was 4.23 µM and the GI50 (BT-549 breast) was 1970 nM. The TGI (BT-549 breast) was 4.21 µM, the GI50 (CAKI-1 renal) was 2120 nM and the TGI (CAKI-1 renal) was 4.26 µM. For the same molecule, the GI50 (CCRF-CEM leukemia) was 4.02 µM, the TGI (CCRF-CEM leukemia) was > 100 µM and the GI50 (DU-145 prostate) was 3.12 µM. The TGI (DU-145 prostate) was 10.7 µM, the GI50 (EKVX NSCLC) was 5.32 µM and the TGI (EKVX NSCLC) was 13.4 µM. It also gave a GI50 (HCC-2998 colon) of 2600 nM, a TGI (HCC-2998 colon) of 9.87 µM and a GI50 (HCT-116 colon) of 2040 nM. For the same molecule, the TGI (HCT-116 colon) was 4.57 µM, the GI50 (HCT-15 colon) was 2310 nM and the TGI (HCT-15 colon) was 5.1 µM. The GI50 (HL-60(TB) leukemia) was 4.62 µM, the TGI (HL-60(TB) leukemia) was 40.1 µM and the GI50 (HOP-62 NSCLC) was 12.2 µM. For the same molecule, the TGI (HOP-62 NSCLC) was 30.9 µM, the GI50 (HOP-92 NSCLC) was 5.13 µM and the TGI (HOP-92 NSCLC) was 12.4 µM. The GI50 (HS 578T breast) was 5.83 µM, the TGI (HS 578T breast) was 43.9 µM and the GI50 (HT29 colon) was 2440 nM. The TGI (HT29 colon) was 6.6 µM, the GI50 (IGROV1 ovarian) was 2180 nM and the TGI (IGROV1 ovarian) was 5.7 µM. The GI50 (K-562 leukemia) was 3.67 µM, the TGI (K-562 leukemia) was > 40.4 µM and the GI50 (KM12 colon) was 15.1 µM. For the same molecule, the TGI (KM12 colon) was 44.8 µM, the GI50 (LOX IMVI melanoma) was 1100 nM and the TGI (LOX IMVI melanoma) was 2600 nM. For the same molecule, the GI50 (M14 melanoma) was 2380 nM, the TGI (M14 melanoma) was 5.98 µM and the GI50 (MALME-3M melanoma) was 2990 nM. The TGI (MALME-3M melanoma) was 7.21 µM, the GI50 (MCF7 breast) was 1990 nM and the TGI (MCF7 breast) was 4.86 µM. The GI50 (MDA-MB-231 breast) was 2840 nM, the TGI (MDA-MB-231 breast) was 7.87 µM and the GI50 (MDA-MB-435) was 3.4 µM. The TGI (MDA-MB-435) was 17.8 µM, the GI50 (MOLT-4 leukemia) was 3.43 µM and the TGI (MOLT-4 leukemia) was > 45.1 µM. For the same molecule, the GI50 (NCI-H226 lung) was 2590 nM, the TGI (NCI-H226 lung) was 7.41 µM and the GI50 (NCI-H23 lung) was 2590 nM. It also gave a TGI (NCI-H23 lung) of 7.63 µM, a GI50 (NCI-H460 lung) of 3.94 µM and a TGI (NCI-H460 lung) of 16.4 µM. The GI50 (NCI-H522 lung) was 1730 nM, the TGI (NCI-H522 lung) was 3.57 µM and the GI50 (NCI/ADR-RES ovarian) was 6.39 µM. It also gave a TGI (NCI/ADR-RES ovarian) of 18.9 µM, a GI50 (OVCAR-3 ovarian) of 1930 nM and a TGI (OVCAR-3 ovarian) of 3.58 µM. For the same molecule, the GI50 (OVCAR-4 ovarian) was 4.97 µM, the TGI (OVCAR-4 ovarian) was 68.6 µM and the GI50 (OVCAR-5 ovarian) was 5.74 µM. It also gave a TGI (OVCAR-5 ovarian) of 12.1 µM, a GI50 (OVCAR-8 ovarian) of 2930 nM and a TGI (OVCAR-8 ovarian) of 10.3 µM. It also gave a GI50 (PC-3 prostate) of 4.13 µM, a TGI (PC-3 prostate) of 16.3 µM and a GI50 (RPMI-8226 leukemia) of 2330 nM. It also gave a TGI (RPMI-8226 leukemia) of 17.7 µM, a GI50 (RXF 393 renal) of 2210 nM and a TGI (RXF 393 renal) of 4.34 µM. For the same molecule, the GI50 (SF-268 CNS) was 2380 nM, the TGI (SF-268 CNS) was 5.85 µM and the GI50 (SF-295 CNS) was 18.3 µM. It also gave a TGI (SF-295 CNS) of 38.9 µM, a GI50 (SF-539 CNS) of 3.58 µM and a TGI (SF-539 CNS) of 11.3 µM. For the same molecule, the GI50 (SK-MEL-2 melanoma) was 5.69 µM, the TGI (SK-MEL-2 melanoma) was 12.7 µM and the GI50 (SK-MEL-28 melanoma) was 2640 nM. It also gave a TGI (SK-MEL-28 melanoma) of 7.22 µM, a GI50 (SK-MEL-5 melanoma) of 2020 nM and a TGI (SK-MEL-5 melanoma) of 4.77 µM. For the same molecule, the GI50 (SK-OV-3 ovarian) was 15.2 µM, the TGI (SK-OV-3 ovarian) was > 74.5 µM and the GI50 (SN12C renal) was 1750 nM. For the same molecule, the TGI (SN12C renal) was 3.5 µM, the GI50 (SNB-19 CNS) was 8.91 µM and the TGI (SNB-19 CNS) was 34.3 µM. It also gave a GI50 (SNB-75 CNS) of 2700 nM, a TGI (SNB-75 CNS) of 7.62 µM and a GI50 (SR leukemia) of 1840 nM. The TGI (SR leukemia) was > 31.3 µM, the GI50 (SW-620 colon) was 2040 nM and the TGI (SW-620 colon) was 4.28 µM. For the same molecule, the GI50 (T-47D breast) was 2270 nM, the TGI (T-47D breast) was 6.22 µM and the GI50 (TK-10 renal) was 4.57 µM. For the same molecule, the TGI (TK-10 renal) was 13 µM, the GI50 (U251 CNS) was 1900 nM and the TGI (U251 CNS) was 3.6 µM. The GI50 (UACC-257 melanoma) was 6.81 µM, the TGI (UACC-257 melanoma) was 15.6 µM and the GI50 (UACC-62 melanoma) was 3.89 µM. It also gave a TGI (UACC-62 melanoma) of 9.18 µM, a GI50 (UO-31 renal) of 1510 nM and a TGI (UO-31 renal) of 3.04 µM.
